One assay has as its system Plasmodium falciparum. The experiment in a line: Antimalarial activity against Plasmodium falciparum NF54. Format: functional. As to conditions: NF-54.
Assay [1] relates to Mycobacterium tuberculosis. The experiment in a line: Antitubercular activity against Mycobacterium tuberculosis H37Ra. Format: functional.

The MIC is the least concentration at which growth counts as inhibited.

Each structure is given as a SMILES string. Values after ≈ are worked out from the molar mass of the structure shown.

In the assay on Plasmodium falciparum, `Oc1ccc(-c2cc(-c3ccccc3)nc(N3CCOCC3)n2)cc1` showed a minimal inhibitory concentration (MIC) of 2 µg/mL (≈ 6 µM). As for `COc1ccc(-c2cc(-c3ccc(O)cc3)nc(NCCCN3CCOCC3)n2)cc1OC`, the minimum inhibitory concentration (MIC) in the assay on Plasmodium falciparum amounted to 0.5 µg/mL (≈ 1.11 µM); in assay [1], 25 µg/mL (≈ 55.5 µM). Turning to `Cc1ccc(-c2cc(-c3ccc(O)cc3)nc(N3CCOCC3)n2)cc1`, in the assay with Plasmodium falciparum, the lowest concentration to inhibit growth (MIC) was 2 µg/mL (≈ 5.76 µM). For the compound `Oc1ccc(-c2cc(-c3ccccc3)nc(NCCCn3ccnc3)n2)cc1`, the minimal inhibitory concentration (MIC) against Plasmodium falciparum came to 0.5 µg/mL (≈ 1.35 µM); in assay [1] it was 25 µg/mL (≈ 67.3 µM). With `COc1ccc(OC)c(-c2cc(-c3ccc(O)cc3)nc(NCCCN3CCOCC3)n2)c1`, the MIC in the assay on Plasmodium falciparum turned out to be 0.5 µg/mL (≈ 1.11 µM); in assay [1], 25 µg/mL (≈ 55.5 µM). In the assay on Plasmodium falciparum, `COc1ccc(-c2cc(-c3ccc(O)cc3)nc(N3CCOCC3)n2)cc1OC` displayed a minimum inhibitory concentration (MIC) of 0.5 µg/mL (≈ 1.27 µM). As to `CCN(CC)CCCC(C)Nc1nc(-c2ccc(O)cc2)cc(-c2ccc(OC)cc2)n1` (configuration not stated), the MIC against Plasmodium falciparum was found to be 10 µg/mL (≈ 23 µM); in assay [1] it was 12.5 µg/mL (≈ 28.8 µM). In the assay on Plasmodium falciparum, `Cc1ccc(-c2cc(-c3ccc(O)cc3)nc(NCCCN3CCOCC3)n2)cc1` yielded a minimum inhibitory concentration (MIC) of 2 µg/mL (≈ 4.94 µM). Regarding `COc1ccc(-c2cc(-c3ccc(O)cc3)nc(NCCCn3ccnc3)n2)cc1`, the MIC stood at 1 µg/mL (≈ 2.49 µM) against Plasmodium falciparum and 12.5 µg/mL (≈ 31.1 µM) in assay [1]. With `Cc1ccc(-c2cc(-c3ccc(O)cc3)nc(NCCCn3ccnc3)n2)cc1`, the lowest concentration to inhibit growth with Plasmodium falciparum (MIC) was 2 µg/mL (≈ 5.19 µM). For the compound `COc1ccc(OC)c(-c2cc(-c3ccc(O)cc3)nc(NCCCn3ccnc3)n2)c1`, the values for the minimum inhibitory concentration (MIC) (with Plasmodium falciparum; in assay [1]) were 0.25 µg/mL (≈ 0.579 µM) and 12.5 µg/mL (≈ 29 µM), respectively.

For the compound `CCN(CC)CCCC(C)Nc1nc(-c2ccc(O)cc2)cc(-c2cc(OC)ccc2OC)n1` (configuration not stated), the MIC against Plasmodium falciparum is 10 µg/mL (≈ 21.5 µM); in assay [1], 12.5 µg/mL (≈ 26.9 µM).

`COc1ccc(-c2cc(-c3ccc(O)cc3)nc(N3CCOCC3)n2)cc1` showed an MIC against Plasmodium falciparum of 1 µg/mL (≈ 2.75 µM). For the compound `CCN(CC)CCCC(C)Nc1nc(-c2ccc(O)cc2)cc(-c2ccc(OC)c(OC)c2)n1` (configuration not stated), the figures for the minimum inhibitory concentration (MIC) (with Plasmodium falciparum; in assay [1]) were 2 µg/mL (≈ 4.3 µM) and 12.5 µg/mL (≈ 26.9 µM), respectively.

On to `COc1ccc(-c2cc(-c3ccc(O)cc3)nc(NCCCn3ccnc3)n2)cc1OC`, for which the MIC worked out at 0.25 µg/mL (≈ 0.579 µM) with Plasmodium falciparum and 12.5 µg/mL (≈ 29 µM) in assay [1]. Turning to `CCN(CC)CCCC(C)Nc1nc(-c2ccccc2)cc(-c2ccc(O)cc2)n1` (configuration not stated), the MIC came to 10 µg/mL (≈ 24.7 µM) in the assay on Plasmodium falciparum and 25 µg/mL (≈ 61.8 µM) in assay [1].

`COc1ccc(-c2cc(-c3ccc(O)cc3)nc(NCCCN3CCOCC3)n2)cc1`: the MIC worked out at 1 µg/mL (≈ 2.38 µM) against Plasmodium falciparum and 12.5 µg/mL (≈ 29.7 µM) in assay [1]. Regarding `COc1ccc(OC)c(-c2cc(-c3ccc(O)cc3)nc(N3CCOCC3)n2)c1`, the lowest concentration to inhibit growth against Plasmodium falciparum (MIC) was 0.5 µg/mL (≈ 1.27 µM).

Regarding `CCN(CC)CCCC(C)Nc1nc(-c2ccc(C)cc2)cc(-c2ccc(O)cc2)n1` (configuration not stated), the MIC in the assay with Plasmodium falciparum came to 50 µg/mL (≈ 119 µM). Regarding `Oc1ccc(-c2cc(-c3ccccc3)nc(NCCCN3CCOCC3)n2)cc1`, the MIC in the assay with Plasmodium falciparum is 2 µg/mL (≈ 5.12 µM); in assay [1], 12.5 µg/mL (≈ 32 µM).

For the origin of these results see ChEMBL document CHEMBL1141867, “A small library of trisubstituted pyrimidines as antimalarial and antitubercular agents” (2005).
